Experiment [1] has as its target T1, TgcPheRS (Toxoplasma gondii cytosolic phenylalanyl-tRNA synthetase, alpha subunit) (Toxoplasma gondii, UniProt A0A125YPN6+S8EZ50).
T1 sequence (A0A125YPN6 1-525): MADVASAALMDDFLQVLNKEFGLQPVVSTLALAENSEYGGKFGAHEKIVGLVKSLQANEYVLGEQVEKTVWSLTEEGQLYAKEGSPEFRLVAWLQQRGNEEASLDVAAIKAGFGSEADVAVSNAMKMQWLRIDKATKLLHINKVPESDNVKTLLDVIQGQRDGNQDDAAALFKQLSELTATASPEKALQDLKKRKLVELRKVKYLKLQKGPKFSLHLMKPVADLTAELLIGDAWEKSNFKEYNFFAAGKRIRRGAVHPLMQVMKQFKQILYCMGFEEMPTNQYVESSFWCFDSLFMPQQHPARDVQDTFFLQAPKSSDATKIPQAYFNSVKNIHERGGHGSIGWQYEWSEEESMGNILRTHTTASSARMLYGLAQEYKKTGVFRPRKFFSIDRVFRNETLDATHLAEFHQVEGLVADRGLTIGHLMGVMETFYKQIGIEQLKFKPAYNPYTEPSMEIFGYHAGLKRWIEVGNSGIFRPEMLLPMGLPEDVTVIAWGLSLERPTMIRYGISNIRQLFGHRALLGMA
T1 sequence (S8EZ50 1-675): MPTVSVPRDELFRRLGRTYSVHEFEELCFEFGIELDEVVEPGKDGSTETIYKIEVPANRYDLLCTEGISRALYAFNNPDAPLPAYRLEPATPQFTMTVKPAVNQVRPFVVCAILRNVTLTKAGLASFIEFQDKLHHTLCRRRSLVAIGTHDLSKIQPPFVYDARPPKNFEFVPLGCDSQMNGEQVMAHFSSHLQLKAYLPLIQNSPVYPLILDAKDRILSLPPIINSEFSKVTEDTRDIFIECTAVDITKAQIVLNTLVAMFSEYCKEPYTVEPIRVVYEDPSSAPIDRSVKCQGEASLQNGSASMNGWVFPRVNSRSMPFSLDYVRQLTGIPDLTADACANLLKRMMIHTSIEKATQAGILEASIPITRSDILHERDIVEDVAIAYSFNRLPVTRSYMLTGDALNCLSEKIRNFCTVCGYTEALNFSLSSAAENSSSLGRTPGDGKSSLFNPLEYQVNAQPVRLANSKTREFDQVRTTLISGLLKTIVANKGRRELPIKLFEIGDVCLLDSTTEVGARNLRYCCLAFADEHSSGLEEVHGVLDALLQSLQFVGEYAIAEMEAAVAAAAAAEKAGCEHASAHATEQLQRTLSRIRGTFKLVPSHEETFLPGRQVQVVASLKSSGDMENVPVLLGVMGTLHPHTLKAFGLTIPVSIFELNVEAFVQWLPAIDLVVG
The experiment is described as follows: thermal shift assay. The class given is binding.

In experiment [2] the target is T2, HscPheRS (human cytosolic phenylalanyl-tRNA synthetase, alpha subunit) (Homo sapiens, UniProt Q9Y285).
T2 sequence (Q9Y285 2-508): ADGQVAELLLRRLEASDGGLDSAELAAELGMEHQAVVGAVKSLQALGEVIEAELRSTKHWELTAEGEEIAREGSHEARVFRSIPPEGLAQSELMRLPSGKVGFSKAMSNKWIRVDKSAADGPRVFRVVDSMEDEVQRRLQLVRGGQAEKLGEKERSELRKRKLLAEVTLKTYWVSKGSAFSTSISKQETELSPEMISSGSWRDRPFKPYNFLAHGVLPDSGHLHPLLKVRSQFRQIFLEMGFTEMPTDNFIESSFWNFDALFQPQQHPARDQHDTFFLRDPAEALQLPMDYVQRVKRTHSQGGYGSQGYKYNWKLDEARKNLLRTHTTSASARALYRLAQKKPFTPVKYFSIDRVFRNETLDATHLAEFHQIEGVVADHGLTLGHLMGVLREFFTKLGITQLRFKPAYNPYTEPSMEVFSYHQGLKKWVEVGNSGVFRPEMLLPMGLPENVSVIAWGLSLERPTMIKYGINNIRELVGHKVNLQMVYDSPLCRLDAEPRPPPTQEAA
T2 sequence (Q9NSD9 1-589 partner): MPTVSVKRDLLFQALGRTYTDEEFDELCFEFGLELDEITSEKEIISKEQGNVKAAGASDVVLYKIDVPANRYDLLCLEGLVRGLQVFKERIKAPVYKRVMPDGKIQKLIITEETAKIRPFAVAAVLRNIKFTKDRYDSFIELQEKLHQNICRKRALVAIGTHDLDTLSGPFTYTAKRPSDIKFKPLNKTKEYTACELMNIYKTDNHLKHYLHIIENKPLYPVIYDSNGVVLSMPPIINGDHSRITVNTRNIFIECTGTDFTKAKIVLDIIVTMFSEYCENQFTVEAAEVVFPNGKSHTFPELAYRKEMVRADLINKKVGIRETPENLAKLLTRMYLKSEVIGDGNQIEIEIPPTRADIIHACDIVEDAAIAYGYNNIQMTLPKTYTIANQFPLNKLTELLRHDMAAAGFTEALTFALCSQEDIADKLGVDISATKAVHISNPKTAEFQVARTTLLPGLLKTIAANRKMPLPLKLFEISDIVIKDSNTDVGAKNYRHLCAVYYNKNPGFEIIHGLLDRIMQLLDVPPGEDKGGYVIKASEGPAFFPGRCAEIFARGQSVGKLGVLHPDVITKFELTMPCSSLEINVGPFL
The experiment is described as follows: malachite green aminoacylation assay with purified enzyme. The class given is biochemical. Particulars: read-out: BRD7929.

Experiment [3] has as its target T2, HscPheRS (human cytosolic phenylalanyl-tRNA synthetase, alpha subunit). The experiment is described as above. Type of experiment: biochemical.
Experiment [4] has as its target T1, TgcPheRS (Toxoplasma gondii cytosolic phenylalanyl-tRNA synthetase, alpha subunit). Described as above. The class given is biochemical.
In experiment [5] the target is T2, HscPheRS (human cytosolic phenylalanyl-tRNA synthetase, alpha subunit). The description is as above. Type of experiment: biochemical. To be noted: read-out: BRD2108.
Experiment [6] deals with T1, TgcPheRS (Toxoplasma gondii cytosolic phenylalanyl-tRNA synthetase, alpha subunit). The description is as above. The class given is biochemical. This is another data set of the same source.

Where two headings read alike, the source gives them in different places.

`COc1ccc(NC(=O)N2CCCCN3[C@H](CN(C)C)[C@H](c4ccc(C#Cc5ccccc5)cc4)[C@@H]3C2)cc1` [BRD7929]: the BRD7929 in experiment [1] stood at 11.6 °C. In addition, the IC50 in experiment [2] came out at 18 µM.

As to `COc1ccc(NC(=O)N2CCCN3CC[C@H](c4ccc(C#CC5=CCCCC5)cc4)[C@@H]3C2)cc1` [mCMY416], the IC50 was determined as 3.58 µM in experiment [3] and 0.24 µM in experiment [4].

For the compound BRD2108, the IC50 in experiment [5] amounted to 15.6 µM; in experiment [6], 0.42 µM.

Values taken from article PMC11299587 (ACS infectious diseases, 2024).
